Test results as given in patent US11471502B2, “Neuroprotective peptide” (UNIVERSITY COLLEGE CARDIFF C[…], priority 2017, dated 2022).

Legend:
[1] = tested on: C57BL/6 mice treated with 3-NP; assay: 3-Nitropropionic acid (3-NP) pharmacological mouse model of Huntington's disease; type: in vivo; settings: 20 mg/kg i.p. twice a day, 3-NP 50 mg/kg once a day, 7 days
Method: Importantly, this reduction resembled physiological condition (RB5 3-NP vs RB5 Saline p=0.85). Mean±SEM, n=10 each experimental group).
Before use, CCP-SCR and CPP-RB5 were diluted in PBS 1× and injected twice a day at 12 hr intervals (20 mg/kg). 3-NP was injected 1 h after peptides once a day for 7 consecutive days (50 mg/kg) in male C57B/6 mice. All drugs were administered by intraperitoneal (i.p.) injection in a volume of 10 ml/kg. The mice were euthanized 1 hr after the last peptide injection and transcardially perfused with buffered 4% PFA, and processed for immunohistochemistry. The DeadEnd Colorimetric TUNEL System (Promega) was used to detect apoptotic cells on tissue sections […] thick. For each animal three consecutive coronal sections were taken, mounted on glass slides and processed for immunohistochemical analysis according to the recommended procedures. For quantification, the number of positive neurons in each section was counted across the dorsolateral region of the striatum of both hemispheres and means values were calculated.
We set up a protocol in which male C57BL/6 mice were injected with CPP-SCR or CPP-RB5 peptides (20 mg/kg, i.p.) twice a day (every 12 h) for 7 days and 1 h after peptides injection they received one injection of 3-NP (50 mg/kg). At the end of treatment, animals were perfused and brains were prepared as for immunohistochemistry.

ERK1/2 = assay: Ex vivo acute striatal slices, glutamate stimulation, Western blot for phospho ERK; type: cell-based, mouse; settings: 50 μM peptide; for ERK2 activation (phosphorylation of ERK2) / pERK1 (phospho-ERK1) level: glutamate 100 μM 10 min, vs scramble
Method: (§1) a) RB5 peptide selectively promoted activation of ERK2. Acute striatal slices either pre-treated with Scramble (SCR) or RB5 peptide (50 μM) and then stimulated 10 minutes with glutamate (GLU) (100 μM) or vehicle were analysed in Western blot (left panel) and probed with anti phospho ERK antibodies (p44^ERK1 and p42^ERK2) and anti ERK1/2 antibody. GAPDH was used as loading control. […] No changes were detected in the total ERK1 and ERK2 levels. GAPDH was used as loading control. […] Mice injected with a single dose of CPP-SCR or CPP-RB5 peptides (20 mg/kg, i.p.) were rapidly perfused 1 h later and brains were dissected and further analysed for IHC and immunofluorescence. Representative photomicrographs of pERK1/2, pMSK, pAch3, pELK1 and c-Fos expression in the striatum. […] Two-way ANOVA Bonferroni post hoc comparison: one black star, p<0.05, two black stars, p<0.01, one white star, p<0.001. p) Dose response curve of RB5 peptide for ERK activation. 200 μm thick striatal slices were freshly prepared from 2-month old mice and transferred into a perfusion chamber for 1 h at 32° C. Slices were pre-treated with different doses of RB5 or scrambled control. After 1 h, slices for each dose was fixed in PFA 4% for 15 min. 18 μm cryo-sections were processed for immunohistochemistry with anti-phospho p44/p42 MAP kinase. Neuronal quantification was performed with ImageJ software by counting the number of phospho-ERK positive cells in each slice. The level of activation is expressed on the Y-axis as arbitrary units (AU). Doses are reported in a logarithmic scale (Log 10) on the X-axis. The EC50 was calculated using GraphPad Prism software.
Adult mice were anesthetized and decapitated. The brains were rapidly removed from the skull and put on a cool glass plate filled with ice-cold sucrose-based dissecting solution (87 mM NaCl, 2.5 mM KCl, 7 mM MgCl2, 1 mM NaH2PO4, 75 mM sucrose, 25 mM NaHCO3, 10 mM D-glucose, 0.5 mM CaCl2), 2 mM kynurenic acid) and oxygenated with 95% O2 and 5% CO2 and subsequently mounted on the vibratome stage (Vibratome, VT1000S-Leica Microsystems). 200 μm-thick slices were cut and transferred into the brain slice chamber (Brain slice chamber-BSC1—Scientific System design Inc., Mississauga, ON, Canada) and allowed to recover for 1 h at 32° C., with a constant perfusion of carboxygenated artificial cerebrospinal fluid (ACSF) in the presence of the Scramble or RB5 peptide (50 μM). Brain slice stimulation was performed with 100 μM glutamate in the chamber for 10 min. After rapid fixation in 4% PFA for 15 min at room temperature, slices were rinsed and the cryoprotected overnight at 4° C. in sucrose solution. On the following day slices were further cut in thinner slices of 18 μm using cryostat (Leica CM1850) and collected onto SuperFrost Plus slides (Thermo Scientific).
Mice were sacrificed by decapitation and brain slices were freshly prepared according to the above ex-vivo system protocol and incubated in a perfusing chamber with the peptides. After stimulation with glutamate or saline, slices were then homogenised and used for protein determination using a DC Protein Assay kit (Bio-rad). Equal amounts of protein (5 or 10 μg, depending on the target protein) for each sample were loaded onto 12% polyacrylamide gels. Proteins were separated onto SDS/PAGE and transferred to nitrocellulose membranes. After incubation for 1 hr in blocking solution (TBS1λ, 0.1% Tween), membranes were incubated overnight with anti ERK2 (K-23):sc-153 (1:1000 Santa Cruz Biotechnology, Dallas, Tex.), phospho-p42-44 Map Kinase (Thr202/[…]) (1:1000 Cell Signalling Technology, Danvers, Mass.) and anti-GAPDH (FL-335): sc-25778 (1:1000 Santa Cruz Biotechnology, Dallas, Tex.). The immunoblots were analysed with ImageJ software to measure the optical density of the bands. The levels of each protein were normalized on the GAPDH loading control.

[2] = tested on: ERK-dependent nuclear signalling (histone H3) and cytoplasmic signalling (ribosomal protein S6); assay: Ex vivo acute slices, glutamate stimulation, immunofluorescence for phospho-acetyl histone H3 and phospho-S6; type: cell-based, mouse; settings: 50 μM peptide, glutamate 100 μM
Method: as §1
Adult mice were anesthetized and decapitated. […]
Slides were placed in a humid chamber and 1 h after blocking in 5% normal goat serum and 0.1% Triton X-100 solution, they were incubated overnight at 4° C. with one of the following primary antibodies: anti-phospho-S6 ribosomal protein (Ser235/236) (1:200 Cell Signalling Technology, Danvers, Mass.), anti-phospho-S6 ribosomal protein (Ser240/244) (1:200 Cell Signalling Technology, Danvers, Mass.), anti-phospho (Ser10)-acetylated (Lys14) histone H3 (1:1000 (Millipore, Billerica, Mass.) or Cleaved Caspase 3 (1:200 Cell Signalling Technology, Danvers, Mass.) and anti-NeuN (1:1000 Millipore, Billerica, Mass.) followed by appropriate secondary antibodies. […] Neuronal quantification is performed with ImageJ software by counting phospho-S6 immunoreactive or pH3 neurons among NeuN positive neurons in each slide (n=10 for each experimental group). […]

Compound | Caspase-3 levels (striatum) [1] | apoptotic levels (TUNEL, striatum) [1] | total ERK1 and ERK2 levels (ERK1/2) | ERK2 activation (phosphorylation of ERK2) (ERK1/2) | pERK1 (phospho-ERK1) level (ERK1/2) | phospho (Ser10)-acetyl(Lys14)-histone-H3, nuclear ERK signalling [2] | phospho-S6 ribosomal protein, cytosolic/cytoplasmic signalling [2]
CSCC[C@H](NC(=O)[C@H](CCC(=O)O)NC(=O)[C@@H](NC(=O)[C@H](CCC(=O)O)NC(=O)CNC(=O)[C@@H]1CCCN1C(=O)[C@@H](NC(=O)CNC(=O)[C@@H]1CCCN1C(=O)CNC(=O)[C@@H](NC(=O)CNC(=O)[C@H](CCC(=O)O)NC(=O)[C@@H](NC(=O)[C@H](CCCNC(=N)N)NC(=O)[C@H](CCCNC(=N)N)NC(=O)[C@@H]1CCCN1C(=O)[C@H](CCC(=O)O)NC(=O)CNC(=O)CNC(=O)CNC(=O)CNC(=O)CNC(=O)[C@H](CCC(N)=O)NC(=O)[C@@H]1CCCN1C(=O)[C@@H]1CCCN1C(=O)[C@H](CCCNC(=N)N)NC(=O)[C@H](CCCNC(=N)N)NC(=O)[C@H](CCCNC(=N)N)NC(=O)[C@H](CCC(N)=O)NC(=O)[C@H](CCCNC(=N)N)NC(=O)[C@H](CCCNC(=N)N)NC(=O)[C@H](CCCCN)NC(=O)[C@H](CCCCN)NC(=O)[C@H](CCCNC(=N)N)NC(=O)CNC(C)=O)[C@@H](C)O)C(C)C)C(C)C)C(C)C)C(=O)N[C@H](C(=O)N[C@@H](CCCCN)C(=O)NCC(=O)N[C@@H](CCC(N)=O)C(=O)N1CCC[C@H]1C(=O)N[C@@H](Cc1ccccc1)C(=O)N[C@@H](CC(=O)O)C(=O)N[C@@H](C(=O)O)C(C)C)C(C)C [RB5] | diminished Caspase-3 levels | significant reduction of apoptotic levels | No changes | significantly higher | equally increased | promotes | not activated
GRKKRRQRRRPPQGGGGGEPRRTEGVGPGVPGEVEMVKGQPFDV (listed as Homo sapiens) [CPP-RB5] | reduce pre-apoptotic levels of Caspase 3 marker to control levels | reducing apoptosis to control levels | no changes | selectively enhanced | equally increased | massive intra-nuclear MAPKs substrate activation | no effect
